Assay results from the C3SDB collision cross section collection.
One block for each molecule: values may come before it.

How the values were obtained:
[1] = instrument: DT, stepped-field
[2] = instrument: DT, single field, calibrated with Agilent tune mix (Agilent)
[3] = instrument: DT, stepped-field; remark: listed apart in the source
[4] = instrument: DT, single field, calibrated with Agilent tune mix (Agilent); remark: listed apart in the source

SMILES: CCCCCCCCCCCCC=CC[C@@H](O)[C@H](CO[C@@H]1O[C@H](CO)[C@@H](O)C(O)C1O)NC(=O)CC=CCCCCCCCCCCCCCCCC (some centres not stated) [GlcCer(38:02)]
collision cross section (N2) ([1]; [M+H]+): 287.87 Å²
collision cross section (N2) ([1]; [M+Na]+): 287.34 Å²

SMILES: CCCCCCCC/C=C\CCCCCCCC(=O)OC[C@@H](O)COP(=O)(O)OC[C@H](N)C(=O)O [LPS(18:1)]
collision cross section (N2) ([2]; [M+H]+): 224.2 Å²
collision cross section (N2) ([2]; [M+Na]+): 227 Å²
collision cross section (N2) ([2]; [M-H]-): 220.5 Å²

SMILES: CCCCCCCCCCCCC=CC[C@@H](O)[C@H](CO)NC(=O)CCCCCCCCCCCCCCCCCCCCCCCCC [Cer(44:1)]
collision cross section (N2) ([2]; [M+H]+): 284.8 Å²
collision cross section (N2) ([2]; [M+Na]+): 285 Å²

SMILES: CCCC/C=C\CCCCCCCC(=O)OC[C@H](COP(=O)(O)O)OC(=O)CCCCCCCCCCCCCCCCCCCCC [PA(36:1)]
collision cross section (N2) ([2]; [M+NH4]+): 277.7 Å²
collision cross section (N2) ([2]; [M+Na]+): 275.6 Å²
collision cross section (N2) ([2]; [M-H]-): 261.6 Å²

SMILES: CCCCCCCC/C=C\CCCCCCCCCC(=O)OC[C@@H](O)COP(=O)(O)OCCN [LPE(20:1)]
collision cross section (N2) ([2]; [M-H]-): 218.4 Å²

SMILES: CCCCCCCCCCCCCCCCC(=O)OC[C@@H](O)COP(=O)(O)OC[C@H](N)C(=O)O [LPS(17:0)]
collision cross section (N2) ([2]; [M-H]-): 220.1 Å²

SMILES: CCCCCCCCCCCCCCC(=O)OC[C@@H](O)COP(=O)([O-])OCC[N+](C)(C)C [LPC(15:0)]
collision cross section (N2) ([2]; [M+H]+): 225 Å²

SMILES: CCCCCCCCCCCCCCCCC(=O)OC[C@@H](O)COP(=O)([O-])OCC[N+](C)(C)C [LPC(17:0)]
collision cross section (N2) ([2]; [M+HCOO]-): 237.7 Å²

SMILES: CCCCCCCCCC/C=C\CCCCCCCCCC(=O)O[C@H](COC(=O)CCCCCCCCCCCC)COP(=O)([O-])OCC[N+](C)(C)C [PC(35:1)]
collision cross section (N2) ([2]; [M+H]+): 289.2 Å²

SMILES: CCCCCCCC/C=C\CCCCCCCCCC(=O)O[C@H](COC(=O)CCCCCCCCCCC)COP(=O)(O)O [PA(32:1)]
collision cross section (N2) ([2]; [M-H]-): 249 Å²

SMILES: CCCCCCCCCCCCCCCC(=O)N[C@@H](CO)[C@H](O)CCCCCCCCCCCCCCC [Cer(34:0)]
collision cross section (N2) ([2]; [M+HCOO]-): 251.8 Å²

SMILES: CCCCCCCCCCCCC=CC[C@@H](O)[C@H](CO)NC(=O)CCCCCCCCCCCCCCCCC [Cer(36:1)]
collision cross section (N2) ([2]; [M+HCOO]-): 257.6 Å²
collision cross section (N2) ([2]; [M+H]+): 261.6 Å²
collision cross section (N2) ([2]; [M+Na]+): 268.6 Å²
collision cross section (N2) ([2]; [M-H]-): 248.6 Å²

SMILES: CCCCC/C=C\C/C=C\CCCCCCCCCC(=O)OC[C@@H](O)COP(=O)([O-])OCC[N+](C)(C)C [LPC(20:2)]
collision cross section (N2) ([2]; [M+H]+): 233.9 Å²

SMILES: CCCCCC/C=C\CCCCCCCCCCCC(=O)O[C@H](COC(=O)CCCCCCCCCCCCCCCCC)COP(=O)([O-])OCC[N+](C)(C)C [PC(38:1)]
collision cross section (N2) ([2]; [M+H]+): 298.8 Å²

SMILES: CCCCCCCCCC/C=C\CCCCCCCCCC(=O)OC[C@@H](O)COP(=O)(O)OC[C@H](N)C(=O)O [LPS(22:1)]
collision cross section (N2) ([2]; [M-H]-): 234.2 Å²

SMILES: N[C@@H](CCC(=O)N[C@@H](CS)C(=O)NCC(=O)O)C(=O)O [Glutathione]
collision cross section (N2) ([3]; [M+Na]+): 168.23 Å²
collision cross section (N2) ([4]; [M+H]+): 167.4 Å²

SMILES: CCCCCCCCCCCCCCCCCCCCCC(=O)N[C@@H](CO)[C@H](O)CCCCCCCCCCCCCCC [Cer(40:0)]
collision cross section (N2) ([2]; [M+HCOO]-): 272 Å²
collision cross section (N2) ([2]; [M+H]+): 274.7 Å²
collision cross section (N2) ([2]; [M-H]-): 262.1 Å²

SMILES: CCCCCCCCCCCCC=CC[C@@H](O)[C@H](CO)NC(=O)CC=CCCCCCCCCCCCCCCCCCCC [Cer(41:2)]
collision cross section (N2) ([2]; [M+H]+): 273.5 Å²
collision cross section (N2) ([2]; [M+Na]+): 273.8 Å²

SMILES: CCCC[C@H](N)C(=O)O [L-Norleucine]
collision cross section (N2) ([3]; [M+H]+): 142.63 Å²
collision cross section (N2) ([4]; [M-H]-): 129.02 Å²

SMILES: CCCCCCCCCCCCC=CC[C@@H](O)[C@H](CO)NC(=O)CCCCCCCCCCCCCCC [Cer(34:1)]
collision cross section (N2) ([2]; [M+HCOO]-): 250.4 Å²
collision cross section (N2) ([2]; [M+H]+): 253.6 Å²

SMILES: C[C@]12CC[C@H]3[C@@H](CCC4=CC(=O)CC[C@@]43C)[C@@H]1CC[C@@H]2O [Testosterone]
collision cross section (N2) ([3]; [M+H]+): 183.82 Å²
collision cross section (N2) ([3]; [M+Na]+): 206.07 Å²
collision cross section (N2) ([4]; [M+H]+): 172.7 Å²
collision cross section (N2) ([4]; [M-H]-): 175.64 Å²

SMILES: CC/C=C\C/C=C\C/C=C\C/C=C\C/C=C\C/C=C\CCC(=O)O[C@@H](CO)COC(=O)CCCCCCCCCCCCCCCCCCC [DG(42:6)]
collision cross section (N2) ([2]; [M+NH4]+): 280.3 Å²

SMILES: OC[C@H]1O[C@H](O[C@H]2[C@H](O)[C@@H](O)[C@@H](O[C@H]3[C@H](O)[C@@H](O)C(O)O[C@@H]3CO)O[C@@H]2CO)[C@H](O)[C@@H](O)[C@@H]1O (some centres not stated) [Maltotriose]
collision cross section (N2) ([3]; [M+Na]+): 212.54 Å²
collision cross section (N2) ([4]; [M+Na]+): 212.7 Å²

SMILES: C[C@]12CCC(=O)C=C1CC[C@@H]1[C@@H]2CC[C@]2(C)C(=O)CC[C@@H]12 [Androstenedione]
collision cross section (N2) ([3]; [M+H]+): 183.95 Å²
collision cross section (N2) ([3]; [M+Na]+): 204.73 Å²
collision cross section (N2) ([4]; [M+H]+): 173.3 Å²

More lines, now with the values ahead:

collision cross section (N2) ([1]; [M+HCOO]-): 303.33 Å²
collision cross section (N2) ([1]; [M+H]+): 298.91 Å²
collision cross section (N2) ([1]; [M+Na]+): 296.38 Å²
SMILES: CCCCCCCCCCCCC=CC[C@@H](O)[C@H](COP(=O)([O-])OCC[N+](C)(C)C)NC(=O)CC=CCCCCCCCCCCCCCCCCCCC [SM(41:02)]

collision cross section (N2) ([2]; [M+NH4]+): 331.7 Å²
SMILES: CC/C=C\C/C=C\C/C=C\C/C=C\C/C=C\CCCCCC(=O)OC[C@@H](COC(=O)CCCC/C=C\C/C=C\C/C=C\C/C=C\CC)OC(=O)CCCCCC/C=C\C/C=C\C/C=C\CCCCC [TG(60:12)]

collision cross section (N2) ([2]; [M-H]-): 299.2 Å²
SMILES: CCCCC/C=C\C/C=C\CCCCCCCC(=O)OC[C@H](COP(=O)(O)O[C@H]1C(O)C(O)C(O)[C@@H](O)C1O)OC(=O)CCCCCCCCC/C=C\CCCCCCCCCC (some centres not stated) [PI(40:3)]

collision cross section (N2) ([2]; [M+NH4]+): 335.7 Å²
SMILES: CC/C=C\C/C=C\C/C=C\C/C=C\C/C=C\C/C=C\CCC(=O)OC[C@@H](COC(=O)CCCC/C=C\C/C=C\C/C=C\C/C=C\CC)OC(=O)CCCCCCCC/C=C\C/C=C\C/C=C\CCCCC [TG(62:13)]

collision cross section (N2) ([2]; [M+NH4]+): 345.8 Å²
SMILES: CCCCC/C=C\C/C=C\CCCCCCCC(=O)OC[C@H](COC(=O)CCCCCCCCC/C=C\CCCCCCCCCC)OC(=O)CCCCCCCCC/C=C\CCCCCCCCCC [TG(62:4)]

collision cross section (N2) ([3]; [M+H]+): 135.42 Å²
collision cross section (N2) ([4]; [M+H]+): 130.5 Å²
SMILES: Cc1ncc(CO)c(C=O)c1O [Pyridoxal]

collision cross section (N2) ([2]; [M+H]+): 277.5 Å²
SMILES: CCCCCCCCCCCCCCCCCCCCCC(=O)OC[C@H](COP(=O)(O)OCCN)OC(=O)CCCCCCCCCCC [PE(34:0)]

collision cross section (N2) ([3]; [M+H]+): 177.25 Å²
collision cross section (N2) ([3]; [M+Na]+): 216.16 Å²
collision cross section (N2) ([4]; [M+H]+): 174 Å²
collision cross section (N2) ([4]; [M-H]-): 182.86 Å²
SMILES: CC(=O)[C@H]1CC[C@H]2[C@@H]3CC=C4C[C@@H](O)CC[C@]4(C)[C@H]3CC[C@]12C [Pregnenolone]

collision cross section (N2) ([2]; [M+H]+): 271.4 Å²
SMILES: CCCCCCCCCCCCCCCCCCCC(=O)O[C@H](COC(=O)CCCCCCCCCCC)COP(=O)(O)OCCN [PE(32:0)]

collision cross section (N2) ([2]; [M+NH4]+): 338.1 Å²
SMILES: CC/C=C\C/C=C\C/C=C\C/C=C\C/C=C\C/C=C\CCC(=O)OC[C@@H](COC(=O)CCCCCCC/C=C\CCCCCCCCC)OC(=O)CCCCCCC/C=C\CCCCCCCCC [TG(60:8)]

collision cross section (N2) ([2]; [M+NH4]+): 344.1 Å²
SMILES: CC/C=C\C/C=C\C/C=C\CCCCCCCC(=O)OC[C@H](COC(=O)CCCCCCCCCCC/C=C\C/C=C\CCCCC)OC(=O)CCCCCCCCC/C=C\CCCCCCCCCC [TG(62:6)]
